Source: PMC12189828, “Substitution of Proline Residues by 4-Fluoro-L-Proline Affects the Mechanism of the Proline-Rich Antimicrobial Peptide Api137” (Antibiotics, 2025)
Values joined by “and” are separate entries in the source; they are usually repeats but may differ in a detail not shown here. Identical values can stand only once. Where a SMILES comes first, the peptide text is derived from it. The star is where a group is joined. Orn(α-tetramethylguanidino) = CN(C)C(=N[C@@H](CCCN)C(=O)*)N(C)C

Tests used:
[1] = tested on: E. coli RN31; assay: Growth inhibition of E. coli RN31 during 90 min exponential growth phase; type: cell-based, Escherichia coli; details: E. coli RN31, 33% TSB, peptide 8 µg/mL, 90 min, OD600; two biological replicates (n = 2)
[2] = tested on: eukaryotic cell lines; details: cited from earlier work
[3] = tested on: in vitro expression of sfGFP in the presence of RF1; assay: In vitro transcription-translation (iTT) assay of sfGFP in the presence of RF1; type: biochemical; details: peptide 5 µmol/L, RF1, 37 °C, 2 h, fluorescence; normalized to absence of PrAMPs; n = 3
In short: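 Cell-free PURExpress ΔRF123 system was supplemented with 50-fold-diluted RF1 and a sfGFP template ending in a UAG stop codon (35 ng, 0.1325 pmol). PrAMP was added from a 50 or 0 µmol/L aqueous solution. Reactions ran at 37 °C for 2 h, with fluorescence (ex 485/em 535 nm) read every 10 min.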

[4] = molecular target: 70S ribosomes isolated from E. coli BW25113 (Escherichia coli, UniProt P60723+P61175); assay: Fluorescence polarization, competition with cf-Api137 for 70S ribosome binding (Ki); details: crude 70S ribosome extract, fluorescence polarization, 28 °C, 90 min + 90 min; two independent experiments with two replicates each (n = 4); Table 2
Method: E. coli BW25113 were cultivated in LB medium and harvested by centrifugation (5000× g, 15 min, 4 °C) at an OD600 of 3–4. Cell pellets were washed in ribosome preparation buffer (20 mmol/L HEPES-KOH, 6 mmol/L MgCl2, 30 mmol/L NH4Cl, pH 7.6, 4 °C), centrifuged (4100× g, 30 min, 4 °C), and resuspended in ribosome preparation buffer (0.5 g/L) containing freshly added 2-mercaptoethanol (4 mmol/L) and lysozyme. Cells were incubated on ice for 30 min and disrupted in six cycles using a FastPrep-24^TM 5G instrument (MP Biomedicals, Eschwege, Germany) with the BigPrep 50 mL setting (40 s, 4.0 m/s), interrupted by one minute of incubation on ice between the cycles. After a centrifugation step (1620× g, 5 min, 4 °C), DNase I (5 U/mL) was added to the supernatant and incubated for 1 h on ice. Cell debris was removed by centrifugation at 16,000× g (30 min, 4 °C) and twice at 32,000× g (60 min, 4 °C). Crude ribosomes were obtained by centrifugation at 165,000× g (17 h, 4 °C). […]
Inhibition constants (Ki) were measured for the 70S ribosome extract using cf-labeled and unlabeled peptides in ribosome preparation buffer. […] Fluorescence polarization was determined on a PARADIGM^TM microplate reader in the top reading position (λex = 485 nm, λem = 535 nm). […] Ki values were calculated as described by Mathias and Jung.

CC[C@H](C)[C@H](NC(=O)[C@H](Cc1ccc(O)cc1)NC(=O)[C@@H](NC(=O)[C@@H]1CCCN1C(=O)[C@H](CCCNC(=N)N)NC(=O)[C@H](CC(N)=O)NC(=O)[C@H](CC(N)=O)NC(=O)[C@H](CCCN)N=C(N(C)C)N(C)C)C(C)C)C(=O)N1CCC[C@H]1C(=O)N[C@@H](CCCNC(=N)N)C(=O)N1CCC[C@H]1C(=O)N[C@@H](CCCNC(=N)N)C(=O)N1CCC[C@H]1C(=O)N1CCC[C@H]1C(=O)N[C@@H](Cc1c[nH]cn1)C(=O)N1CCC[C@H]1C(=O)N[C@@H](CCCNC(=N)N)C(=O)N[C@@H](CC(C)C)C(=O)O [Api137] ({Orn(α-tetramethylguanidino)}-NNRPVYIPRPRPPHPRL-OH; N-terminus and C-terminus assumed)
reduction of bacterial growth vs untreated control [1]: 70%
cytotoxicity to eukaryotic cell lines [2]: virtually non-toxic
Residual iTT (sfGFP expression relative to no PrAMP) [3]: 22% and 22 ± 6.2%
Ki [4]: 2.6 ± 0.2 nM
